The record followed here is patent US9770478B2, “Method for inhibiting neuronal cell aggregation” (NATIONAL TAIWAN NORMAL UNIVERSITY, priority 2014, dated 2017).

What is called EC50 is the concentration needed to bring the measured effect to its halfway point. Lower therefore signals a more potent agent.

The subject of data set [1] is HEK-293 cells. Description: IC50 cytotoxicity (MTT cell proliferation) / effective dose ratio. The method, then: H.; Kung, P. J.; Lin, T. H.; Wu, Y. C.; Wu, Y. R.; Chen, Y. C.; Lee-Chen, G. J.; Chen, C. […] Cell proliferation was measured based upon the reduction of 3-(4,5-dimethylthiazol-2-yl]-2,5-diphenyltetrazolium bromide (MTT). Briefly, 5×10^4 cells were plated into 48-well dishes, grown for 20 hr and treated with herbal extract (5˜30 mg/mL G. inflata or C. longa) or pure compound (100 nM˜1 mM AMGZ or licochalcone A). After one day, 20 μL MTT (5 mg/mL in PBS, Sigma) was added to cells and incubated for 2 hr. The absorbance of the insoluble purple formazan product was measured at 570 nm by a Bio-Tek μQuant Universal Microplate Spectrophotometer.
Then doxycycline (10 μg/mL, BD) and oxaliplatin (5 μM, Sigma) were added for 6 days.

The nature of data set [2]: DPPH free radical scavenging assay. The data set is classed as biochemical. As to conditions: 100 μM DPPH; for EC50: 30 min, room temperature. The method, then:
The free radical scavenging activities of tested compounds and herbal extracts were determined using the stable 1,1-diphenyl-2-picrylhydrazyl (DPPH, Sigma) free radical assay (see Li, N.; Liu, J. H.; Zhang, J.; Yu, B. Y. Comparative evaluation of cytotoxicity and antioxidative activity of 20 flavonoids. Journal of Agricultural and Food Chemistry 56:3876-3883; 2008) with some modifications. Briefly, radical scavenging activity was measured in an ethanol mixture containing 100 μM DPPH radical solution and tested compounds (10˜200 μM) or herbal extracts (0.2˜4 mg/mL) The mixture was vortexed for 15 sec and then left to stand at room temperature for 30 min. Then, the scavenging capacity was measured by monitoring the decrease in absorbance at 517 nm by a Thermo Scientific Multiskan GO Microplate Spectrophotometer. The radical scavenging activity was calculated using the formula: 1−(absorbance of sample/absorbance of control)×100%. The antioxidative activity expressed as EC50 was defined as the concentration of the compounds required for inhibition of the formation of DPPH radicals by 50%.

In data set [3] the test system is SH-SY5Y ATXN3/Q75-GFP cells. Put plainly: ATXN3/Q75 aggregation assay in retinoic acid differentiated neuronal cells. The data set is classed as cell-based, human. Particulars: one week. On the procedure: SH-SY5Y ATXN3/Q75-GFP cells were seeded in 6-well (2×10^5/well) plate, with all trans retinoic acid (10 μM, Sigma) added at seeding time. At day 2, cells were treated with G. inflata or C. longa extract (10 μg/mL), AMGZ (0.2 μM) or licochalcone A (2 nM) for 8 hr, and then doxycycline (5 μg/mL) was added to induce ATXN3/Q75-GFP expression. After one week, cells were stained with Hoechst 33342 and aggregation percentage was assessed as described. The morphologic differentiation of untreated cells including total outgrowth, processes, and branches was assessed by using HCA system.

Data set [4] relates to 293 ATXN3/Q75-GFP cells. Put plainly: ATXN3/Q75 aggregation assay, high-content analysis. Format: cell-based, human. The method, then:
Glycyrrhizin is metabolized to 18β-glycyrrhetinic acid by intestinal bacteria. Therefore, ATXN3/Q75 aggregation assay was further performed with different concentrations of the 18β-glycyrrhetinic acid (0.1˜10 μM) and SAHA (0.1 μM) by the aforementioned method, aggregation percentage was assessed by HCA system.

For `C=CC(C)(C)c1cc(/C=C/C(=O)c2ccc(O)cc2)c(OC)cc1O` [licochalcone A], the “IC50 cytotoxicity/effective dose ratio” value in data set [1] (human, 1 day) is recorded as 3×10^5. This compound displayed an EC50 in data set [2] of 121 µM. Besides, the “aggregation reduction in ATXN3/Q75 expressed neuronal cells” value in data set [3] (2 nM) was 10%. Regarding `O=C(CCCCCCC(=O)Nc1ccccc1)NO` [SAHA, suberoylanilide hydroxamic acid, reference compound], in data set [4] (100 nM, 8 hr pretreatment, then doxycycline and oxaliplatin 6 days), the “ATXN3/Q75 aggregation as compared to untreated cells” value is listed as 85%. As for `CC1(C)[C@@H](O)CC[C@]2(C)[C@H]3C(=O)C=C4[C@@H]5C[C@@](C)(C(=O)O)CC[C@]5(C)CC[C@@]4(C)[C@]3(C)CC[C@@H]12` [18β-glycyrrhetinic acid], in data set [4] (10 μM), the “ATXN3/Q75 aggregation as compared to untreated cells” value came out at 81%. Regarding `O=c1c(O)c(-c2ccc(O)cc2)oc2cc(O)cc(O)c12` [Kaempferol, reference compound], in data set [2], the EC50 is 27 µM. Turning to `CC1(C)[C@@H](O[C@H]2O[C@H](C(=O)O)[C@@H](O)[C@H](O)[C@H]2O[C@@H]2O[C@H](C(=O)O)[C@@H](O)[C@H](O)[C@H]2O)CC[C@]2(C)[C@H]3C(=O)C=C4[C@@H]5C[C@@](C)(C(=O)O)CC[C@]5(C)CC[C@@]4(C)[C@]3(C)CC[C@@H]12` [AMGZ, ammonium glycyrrhizinate], the “IC50 cytotoxicity/effective dose ratio” value in data set [1] (effective = reduced the ATXN3/Q75 aggregation to 85% or lower) is reported as greater than 10000. Moreover, the DPPH scavenging activity result in data set [2] (tested compounds 10˜200 μM) was “no detectable DPPH scavenging activity”. For the same compound, the “aggregation reduction in ATXN3/Q75 expressed neuronal cells” value in data set [3] (0.2 μM) is 9%.
